Legend:
[1] = molecular target: T1, Anaphylatoxin C5a (Homo sapiens, UniProt P21730); experiment: biochemical; parameters: Cerep/Eurofins selectivity panel, receptors, channels and transporters, per cent inhibition at 10 uM; conditions: read-out: % Inhibition
T1 construct: gene C5AR1

[2] = molecular target: T2, Hcrtr1 (orexin 1 receptor) (Homo sapiens, UniProt O43613); experiment: radioligand displacement of [3H]SB674042; also FLIPR Ca2+ antagonism in Chem-1 cells (IC50 […]); format: binding
T2 construct: membranes from CHO-K1 cells stably expressing HCRTR1
T2 sequence (O43613 whole entry): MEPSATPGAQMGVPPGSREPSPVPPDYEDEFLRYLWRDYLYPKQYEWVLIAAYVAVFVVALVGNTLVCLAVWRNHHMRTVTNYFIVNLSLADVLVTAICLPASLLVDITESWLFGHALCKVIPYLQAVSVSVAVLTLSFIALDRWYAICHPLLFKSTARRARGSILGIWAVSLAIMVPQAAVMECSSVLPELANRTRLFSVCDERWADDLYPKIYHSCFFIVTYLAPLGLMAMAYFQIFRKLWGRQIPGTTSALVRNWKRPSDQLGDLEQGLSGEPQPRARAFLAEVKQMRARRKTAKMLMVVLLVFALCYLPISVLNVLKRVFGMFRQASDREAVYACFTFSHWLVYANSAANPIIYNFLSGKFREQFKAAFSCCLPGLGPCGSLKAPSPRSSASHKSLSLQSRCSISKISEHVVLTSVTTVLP

[3] = molecular target: Protein Serine/Threonine Kinase, MAPK3 (ERK1) (Homo sapiens, UniProt P27361); experiment: biochemical; parameters: Cerep/Eurofins selectivity panel, enzymes, per cent inhibition at 10 uM; conditions: read-out: % Inhibition
Sequence of Protein Serine/Threonine Kinase, MAPK3 (ERK1) (P27361 whole entry): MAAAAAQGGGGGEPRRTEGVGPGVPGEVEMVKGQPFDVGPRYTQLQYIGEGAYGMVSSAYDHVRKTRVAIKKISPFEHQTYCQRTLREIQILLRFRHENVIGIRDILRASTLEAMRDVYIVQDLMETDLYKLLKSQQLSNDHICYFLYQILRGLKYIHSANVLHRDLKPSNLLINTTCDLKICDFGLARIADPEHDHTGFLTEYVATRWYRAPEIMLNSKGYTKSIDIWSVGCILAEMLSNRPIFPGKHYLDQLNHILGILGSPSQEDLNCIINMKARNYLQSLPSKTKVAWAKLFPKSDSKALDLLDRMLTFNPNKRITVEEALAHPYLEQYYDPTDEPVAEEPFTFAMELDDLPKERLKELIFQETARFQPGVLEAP

[4] = molecular target: T3, Carbonic Anhydrase II (Homo sapiens, UniProt P00918); experiment: biochemical; parameters: Cerep/Eurofins selectivity panel, enzymes, per cent inhibition at 10 uM; conditions: read-out: % Inhibition
T3 construct: gene CA2

[5] = molecular target: T4, Monoamine Oxidase MAO-A (Homo sapiens, UniProt P21397); experiment: biochemical; parameters: Cerep/Eurofins selectivity panel, enzymes, per cent inhibition at 10 uM; conditions: read-out: % Inhibition
T4 construct: gene MAOA

[6] = molecular target: T5, Peptidase, Factor Xa (Homo sapiens, UniProt P00742); experiment: biochemical; parameters: Cerep/Eurofins selectivity panel, enzymes, per cent inhibition at 10 uM; conditions: read-out: % Inhibition
T5 construct: gene F10; factor Xa
T5 sequence (P00742 whole entry): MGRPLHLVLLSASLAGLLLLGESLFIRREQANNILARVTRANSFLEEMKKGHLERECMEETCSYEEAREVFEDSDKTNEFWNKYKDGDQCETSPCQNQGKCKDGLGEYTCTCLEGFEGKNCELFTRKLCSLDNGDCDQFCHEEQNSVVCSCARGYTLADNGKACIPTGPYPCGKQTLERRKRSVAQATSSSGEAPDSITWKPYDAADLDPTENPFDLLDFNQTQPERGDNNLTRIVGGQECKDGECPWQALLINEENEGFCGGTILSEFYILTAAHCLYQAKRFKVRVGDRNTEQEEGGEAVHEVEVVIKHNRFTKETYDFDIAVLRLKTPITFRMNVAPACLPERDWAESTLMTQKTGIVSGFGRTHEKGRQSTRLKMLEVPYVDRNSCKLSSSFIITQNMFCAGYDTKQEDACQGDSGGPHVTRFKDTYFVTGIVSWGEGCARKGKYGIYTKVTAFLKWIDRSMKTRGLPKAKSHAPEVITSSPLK

[7] = molecular target: Protein Tyrosine Kinase, FES (Homo sapiens, UniProt P07332); experiment: biochemical; parameters: Cerep/Eurofins selectivity panel, enzymes, per cent inhibition at 10 uM; conditions: read-out: % Inhibition
[8] = molecular target: Protein Serine/Threonine Kinase, GSK3B (Homo sapiens, UniProt P49841); experiment: biochemical; parameters: Cerep/Eurofins selectivity panel, enzymes, per cent inhibition at 10 uM; conditions: read-out: % Inhibition
Sequence of Protein Serine/Threonine Kinase, GSK3B (P49841 whole entry): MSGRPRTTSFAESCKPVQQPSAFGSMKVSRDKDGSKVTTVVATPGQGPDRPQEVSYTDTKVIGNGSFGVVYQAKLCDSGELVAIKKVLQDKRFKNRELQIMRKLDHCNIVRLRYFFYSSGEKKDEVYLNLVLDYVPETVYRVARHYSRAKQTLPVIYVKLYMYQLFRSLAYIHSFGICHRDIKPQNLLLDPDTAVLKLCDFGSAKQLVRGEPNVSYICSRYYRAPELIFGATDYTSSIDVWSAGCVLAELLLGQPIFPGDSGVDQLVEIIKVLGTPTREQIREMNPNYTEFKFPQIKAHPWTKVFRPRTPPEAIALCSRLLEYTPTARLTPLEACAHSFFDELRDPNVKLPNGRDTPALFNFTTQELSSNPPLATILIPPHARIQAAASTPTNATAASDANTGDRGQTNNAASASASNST

[9] = molecular target: Protein Tyrosine Kinase, SRC (Homo sapiens, UniProt P12931); experiment: biochemical; parameters: Cerep/Eurofins selectivity panel, enzymes, per cent inhibition at 10 uM; conditions: read-out: % Inhibition
[10] = molecular target: Protein Serine/Threonine Kinase, MAPK8 (JNK1) (Homo sapiens, UniProt P45983); experiment: biochemical; parameters: Cerep/Eurofins selectivity panel, enzymes, per cent inhibition at 10 uM; conditions: read-out: % Inhibition
[11] = molecular target: T6, Cyclooxygenase COX-2 (Homo sapiens, UniProt P35354); experiment: biochemical; parameters: Cerep/Eurofins selectivity panel, enzymes, per cent inhibition at 10 uM; conditions: read-out: % Inhibition
T6 construct: gene PTGS2
T6 sequence (P35354 whole entry): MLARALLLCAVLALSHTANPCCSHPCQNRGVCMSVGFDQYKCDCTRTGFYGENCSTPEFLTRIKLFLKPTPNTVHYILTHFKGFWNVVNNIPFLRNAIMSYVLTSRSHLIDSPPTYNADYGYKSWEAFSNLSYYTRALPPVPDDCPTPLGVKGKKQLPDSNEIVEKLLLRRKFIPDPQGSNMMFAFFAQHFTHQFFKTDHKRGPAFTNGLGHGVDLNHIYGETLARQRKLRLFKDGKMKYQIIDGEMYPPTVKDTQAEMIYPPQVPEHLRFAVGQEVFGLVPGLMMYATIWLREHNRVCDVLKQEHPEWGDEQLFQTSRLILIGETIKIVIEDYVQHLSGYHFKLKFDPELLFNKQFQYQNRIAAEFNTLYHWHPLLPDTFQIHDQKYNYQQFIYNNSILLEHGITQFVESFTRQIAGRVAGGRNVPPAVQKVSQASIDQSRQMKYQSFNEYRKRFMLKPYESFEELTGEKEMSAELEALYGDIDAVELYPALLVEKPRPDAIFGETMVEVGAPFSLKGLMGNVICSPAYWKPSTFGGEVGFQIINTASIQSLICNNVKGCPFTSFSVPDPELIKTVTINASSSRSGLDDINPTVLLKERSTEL

[12] = molecular target: T7, Phosphodiesterase PDE10A2 (Homo sapiens, UniProt Q9Y233); experiment: biochemical; parameters: Cerep/Eurofins selectivity panel, enzymes, per cent inhibition at 10 uM; conditions: read-out: % Inhibition
T7 construct: gene PDE10A; isoform PDE10A2

[13] = molecular target: Protein Serine/Threonine Kinase, MAP2K1 (MEK1) (Homo sapiens, UniProt Q02750); experiment: biochemical; parameters: Cerep/Eurofins selectivity panel, enzymes, per cent inhibition at 10 uM; conditions: read-out: % Inhibition
[14] = molecular target: T8, Protein Serine/Threonine Kinase, ATK1 (PRKBA) (Homo sapiens, UniProt P31749); experiment: biochemical; parameters: Cerep/Eurofins selectivity panel, enzymes, per cent inhibition at 10 uM; conditions: read-out: % Inhibition
T8 construct: gene AKT1
T8 sequence (P31749 whole entry): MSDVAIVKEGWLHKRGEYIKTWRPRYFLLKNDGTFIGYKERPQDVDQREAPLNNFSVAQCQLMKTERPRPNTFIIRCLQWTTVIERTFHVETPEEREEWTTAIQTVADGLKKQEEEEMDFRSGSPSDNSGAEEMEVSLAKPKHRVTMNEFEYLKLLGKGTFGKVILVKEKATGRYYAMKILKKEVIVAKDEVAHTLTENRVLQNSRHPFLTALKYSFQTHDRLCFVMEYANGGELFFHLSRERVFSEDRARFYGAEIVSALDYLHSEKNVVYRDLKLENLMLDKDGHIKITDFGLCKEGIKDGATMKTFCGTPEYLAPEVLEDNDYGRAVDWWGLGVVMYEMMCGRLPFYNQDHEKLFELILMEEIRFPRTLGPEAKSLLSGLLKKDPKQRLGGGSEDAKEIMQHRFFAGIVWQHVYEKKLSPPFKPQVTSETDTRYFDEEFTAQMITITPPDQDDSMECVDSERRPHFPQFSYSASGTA

[15] = molecular target: T9, Protein Tyrosine Kinase, ZA70 (ZAP-70) (Homo sapiens, UniProt P43403); experiment: biochemical; parameters: Cerep/Eurofins selectivity panel, enzymes, per cent inhibition at 10 uM; conditions: read-out: % Inhibition
T9 construct: gene ZAP70

[16] = molecular target: T10, Peptidase, Tumor necrosis factorα Converting enzyme (TACE) (Homo sapiens, UniProt P78536); experiment: biochemical; parameters: Cerep/Eurofins selectivity panel, enzymes, per cent inhibition at 10 uM; conditions: read-out: % Inhibition
T10 construct: gene ADAM17
T10 sequence (P78536 whole entry): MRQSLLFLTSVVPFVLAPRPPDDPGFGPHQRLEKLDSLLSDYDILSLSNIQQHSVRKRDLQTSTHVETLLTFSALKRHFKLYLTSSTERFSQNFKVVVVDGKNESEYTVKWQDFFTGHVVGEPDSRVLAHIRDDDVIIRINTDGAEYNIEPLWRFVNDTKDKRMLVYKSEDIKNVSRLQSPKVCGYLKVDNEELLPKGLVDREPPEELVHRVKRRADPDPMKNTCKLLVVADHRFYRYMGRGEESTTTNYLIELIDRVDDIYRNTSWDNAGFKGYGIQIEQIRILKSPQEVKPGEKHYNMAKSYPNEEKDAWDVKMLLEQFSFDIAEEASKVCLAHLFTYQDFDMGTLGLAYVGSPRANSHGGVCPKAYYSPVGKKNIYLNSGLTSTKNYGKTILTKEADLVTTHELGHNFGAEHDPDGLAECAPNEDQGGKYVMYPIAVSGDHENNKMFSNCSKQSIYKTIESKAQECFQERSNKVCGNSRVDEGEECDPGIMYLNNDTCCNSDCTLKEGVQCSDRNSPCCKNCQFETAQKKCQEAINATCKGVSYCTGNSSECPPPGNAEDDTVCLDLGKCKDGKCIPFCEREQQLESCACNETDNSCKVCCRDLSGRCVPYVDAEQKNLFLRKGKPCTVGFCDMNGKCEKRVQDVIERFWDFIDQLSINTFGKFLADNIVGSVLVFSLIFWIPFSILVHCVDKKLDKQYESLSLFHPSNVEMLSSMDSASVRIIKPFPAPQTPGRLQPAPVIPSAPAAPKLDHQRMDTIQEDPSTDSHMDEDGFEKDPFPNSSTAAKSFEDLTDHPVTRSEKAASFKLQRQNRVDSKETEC

[17] = molecular target: T11, Insulin (Rattus norvegicus, UniProt P15127); experiment: biochemical; parameters: Cerep/Eurofins selectivity panel, receptors, channels and transporters, per cent inhibition at 10 uM; conditions: read-out: % Inhibition
T11 construct: gene Insr
T11 sequence (P15127 whole entry): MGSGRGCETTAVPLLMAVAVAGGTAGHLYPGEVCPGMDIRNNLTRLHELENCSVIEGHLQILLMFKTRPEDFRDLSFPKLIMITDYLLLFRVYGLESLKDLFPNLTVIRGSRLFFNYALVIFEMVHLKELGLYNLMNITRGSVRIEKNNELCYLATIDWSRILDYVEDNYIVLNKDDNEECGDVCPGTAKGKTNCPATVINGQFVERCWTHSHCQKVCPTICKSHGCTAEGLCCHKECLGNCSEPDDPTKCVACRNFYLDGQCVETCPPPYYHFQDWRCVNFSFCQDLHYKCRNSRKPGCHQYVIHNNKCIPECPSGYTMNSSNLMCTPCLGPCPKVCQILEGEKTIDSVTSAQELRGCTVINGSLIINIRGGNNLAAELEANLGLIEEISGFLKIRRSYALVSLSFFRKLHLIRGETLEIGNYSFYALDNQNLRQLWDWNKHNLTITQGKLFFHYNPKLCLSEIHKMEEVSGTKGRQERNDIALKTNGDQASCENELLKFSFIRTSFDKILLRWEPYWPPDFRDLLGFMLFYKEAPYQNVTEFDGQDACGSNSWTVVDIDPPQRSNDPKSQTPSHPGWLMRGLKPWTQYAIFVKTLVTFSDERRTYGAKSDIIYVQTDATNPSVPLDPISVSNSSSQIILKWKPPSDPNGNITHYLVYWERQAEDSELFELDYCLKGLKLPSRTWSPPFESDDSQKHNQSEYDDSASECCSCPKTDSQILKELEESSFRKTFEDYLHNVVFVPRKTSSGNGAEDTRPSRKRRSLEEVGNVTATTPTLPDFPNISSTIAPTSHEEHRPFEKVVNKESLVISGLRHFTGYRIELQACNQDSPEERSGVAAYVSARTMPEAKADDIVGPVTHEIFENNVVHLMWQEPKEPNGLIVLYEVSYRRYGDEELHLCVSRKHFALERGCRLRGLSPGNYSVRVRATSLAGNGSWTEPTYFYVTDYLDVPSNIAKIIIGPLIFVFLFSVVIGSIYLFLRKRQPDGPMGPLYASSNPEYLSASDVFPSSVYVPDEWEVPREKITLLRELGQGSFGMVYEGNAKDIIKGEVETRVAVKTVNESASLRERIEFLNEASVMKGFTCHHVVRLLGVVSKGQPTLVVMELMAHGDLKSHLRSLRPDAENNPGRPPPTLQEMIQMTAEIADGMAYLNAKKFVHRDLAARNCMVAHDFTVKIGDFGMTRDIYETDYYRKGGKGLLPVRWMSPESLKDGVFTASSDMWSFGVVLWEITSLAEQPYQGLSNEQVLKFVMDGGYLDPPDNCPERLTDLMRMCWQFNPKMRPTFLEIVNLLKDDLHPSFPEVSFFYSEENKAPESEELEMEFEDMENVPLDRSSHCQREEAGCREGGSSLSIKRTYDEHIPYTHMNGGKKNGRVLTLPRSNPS

[18] = molecular target: T12, Serotonin (5-Hydroxytryptamine) 5-HT4 (Cavia porcellus, UniProt O70528); experiment: biochemical; parameters: Cerep/Eurofins selectivity panel, receptors, channels and transporters, per cent inhibition at 10 uM; conditions: read-out: % Inhibition
T12 construct: gene HTR4

## C[C@]1(Nc2cnc(C(F)(F)F)cn2)CCC[C@@H]1NC(=O)c1ncccc1-n1nccn1 [CVN45502]
[1]
  inhibition at 10 µM: 6%
[2]
  Ki: 13.8 nM
[3]
  inhibition at 10 µM: 8%
[4]
  inhibition at 10 µM: -4%
[5]
  inhibition at 10 µM: 11%
[6]
  inhibition at 10 µM: -2%
[7]
  inhibition at 10 µM: -13%
[8]
  inhibition at 10 µM: 8%
[9]
  inhibition at 10 µM: -7%
[10]
  inhibition at 10 µM: 6%
[11]
  inhibition at 10 µM: -13%
[12]
  inhibition at 10 µM: 35%
[13]
  inhibition at 10 µM: -4%
[14]
  inhibition at 10 µM: -7%
[15]
  inhibition at 10 µM: -1%
[16]
  inhibition at 10 µM: 2%
[17]
  inhibition at 10 µM: 2%
[18]
  inhibition at 10 µM: -4%

Reference: article PMC9684079, “Pharmacological targeting of glutamatergic neurons within the brainstem for weight reduction” (Nature Metabolism, 2022)
